Measured values as given in the NIST ThermoML archive (doi:10.1016/j.jct.2018.05.027).

Conditions: Liquid

CCC(C)O (centres undefined) [butan-2-ol]
viscosity [mPa·s]
Conditions | 293.15 K | 298.15 K | 313.15 K | 333.15 K | 353.15 K
100 kPa, Concentric cylinders viscometry | 3.744 | – | 1.832 | 1.011 | 0.6218
100 kPa, Vibrating wire viscometry | 3.767 | 3.102 | 1.839 | 1.007 | 0.6198
1000 kPa, Vibrating wire viscometry | 3.813 | 3.123 | 1.862 | 1.023 | 0.6273
5000 kPa, Vibrating wire viscometry | 3.978 | 3.28 | 1.947 | 1.078 | 0.6577
10000 kPa, Vibrating wire viscometry | 4.235 | 3.462 | 2.041 | 1.133 | 0.6999
20000 kPa, Vibrating wire viscometry | 4.696 | 3.873 | 2.262 | 1.254 | 0.7717
30000 kPa, Vibrating wire viscometry | 5.159 | 4.253 | 2.503 | 1.372 | 0.8354
40000 kPa, Vibrating wire viscometry | 5.693 | 4.697 | 2.734 | 1.491 | 0.9088
50000 kPa, Vibrating wire viscometry | 6.274 | 5.142 | 2.99 | 1.624 | 0.9898
60000 kPa, Vibrating wire viscometry | 6.831 | 5.553 | 3.237 | 1.759 | 1.07
70000 kPa, Vibrating wire viscometry | 7.377 | 6.044 | 3.558 | 1.905 | 1.151
80000 kPa, Vibrating wire viscometry | 8.056 | 6.544 | 3.841 | 2.081 | 1.242
100000 kPa, Vibrating wire viscometry | 9.598 | 7.646 | 4.456 | 2.427 | 1.444
120000 kPa, Vibrating wire viscometry | 11.31 | 9.053 | 5.179 | 2.716 | 1.644
140000 kPa, Vibrating wire viscometry | 13.38 | 10.43 | 5.933 | 3.099 | 1.845
